Source: article PMC12186255, “Discovery and Characterization of Small Molecule Inhibitors Targeting Exonuclease 1 for Homologous Recombination-Deficient Cancer Therapy” (ACS Chemical Biology, 2025)

Assays:
UACC-257 = assay: Cell line drug profiling, CellTiter Glo; assay type: cell-based; conditions: Homo sapiens; UACC-257, Melanoma, 72 h
In short: (§1)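 Cells were plated overnight, then exposed to EXO1 inhibitor hits in duplicate as a 3-fold serial dilution starting at 50 μM. Viability was read by CellTiter Glo luminescence after 72 h of treatment.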

NCI/ADR-RES = assay: Cell line drug profiling, CellTiter Glo; assay type: cell-based; conditions: Homo sapiens, Ovarian, 72 h
In short: as §1

DU145 = assay: Cell line drug profiling, CellTiter Glo; assay type: cell-based; conditions: Homo sapiens, DU-145; DU145, Prostate, 72 h
In short: as §1

IGR-OV1 = assay: Cell line drug profiling, CellTiter Glo; assay type: cell-based; conditions: Homo sapiens, IGROV-1; IGR-OV1, Ovarian, 72 h
In short: as §1

PC3 = assay: Cell line drug profiling, CellTiter Glo; assay type: cell-based; conditions: Homo sapiens, PC-3; PC3, Prostate, 72 h
In short: as §1

SKOV-3 = assay: Cell line drug profiling, CellTiter Glo; assay type: cell-based; conditions: Homo sapiens, SK-OV-3; SKOV-3, Ovarian, 72 h
In short: as §1

OVCAR-5 = assay: Cell line drug profiling, CellTiter Glo; assay type: cell-based; conditions: Homo sapiens; OVCAR-5, Ovarian, 72 h
In short: as §1

U251 = assay: Cell line drug profiling, CellTiter Glo; assay type: cell-based; conditions: Homo sapiens, U-251; U251, Central Nervous System, 72 h
In short: as §1

SNB-19 = assay: Cell line drug profiling, CellTiter Glo; assay type: cell-based; conditions: Homo sapiens; SNB-19, Central Nervous System, 72 h
In short: as §1

H23 = assay: Cell line drug profiling, CellTiter Glo; assay type: cell-based; conditions: Homo sapiens, NCI-H23; H23, Lung, 72 h
In short: as §1

SF-295 = assay: Cell line drug profiling, CellTiter Glo; assay type: cell-based, human; conditions: Homo sapiens, SF-295, 72 h
Description: We tested the cytotoxicity of representative compounds from the seven EXO1i scaffolds against a subset of the NCI-60 cell line panel along with three additional pancreatic cell lines (FG, AsPC1, and CaPan2). In general, cells were seeded in 384-well tissue culture-treated plates overnight and treated with various concentrations of each hit compound (a serial 3-fold dilution from 50 μM for all tested hits). Each concentration was performed in duplicate. Cell viability was then measured by CellTiter Glo (Promega) after 72 h of treatment.

EXO1 = biological target: T1, EXO1 (Homo sapiens, UniProt Q9UQ84); assay: Thermal shift assay; assay type: binding; conditions: maximum shift in Tm of EXO1 vs DMSO, increasing inhibitor concentrations
T1 construct: made in house
T1 sequence (Q9UQ84 1-846): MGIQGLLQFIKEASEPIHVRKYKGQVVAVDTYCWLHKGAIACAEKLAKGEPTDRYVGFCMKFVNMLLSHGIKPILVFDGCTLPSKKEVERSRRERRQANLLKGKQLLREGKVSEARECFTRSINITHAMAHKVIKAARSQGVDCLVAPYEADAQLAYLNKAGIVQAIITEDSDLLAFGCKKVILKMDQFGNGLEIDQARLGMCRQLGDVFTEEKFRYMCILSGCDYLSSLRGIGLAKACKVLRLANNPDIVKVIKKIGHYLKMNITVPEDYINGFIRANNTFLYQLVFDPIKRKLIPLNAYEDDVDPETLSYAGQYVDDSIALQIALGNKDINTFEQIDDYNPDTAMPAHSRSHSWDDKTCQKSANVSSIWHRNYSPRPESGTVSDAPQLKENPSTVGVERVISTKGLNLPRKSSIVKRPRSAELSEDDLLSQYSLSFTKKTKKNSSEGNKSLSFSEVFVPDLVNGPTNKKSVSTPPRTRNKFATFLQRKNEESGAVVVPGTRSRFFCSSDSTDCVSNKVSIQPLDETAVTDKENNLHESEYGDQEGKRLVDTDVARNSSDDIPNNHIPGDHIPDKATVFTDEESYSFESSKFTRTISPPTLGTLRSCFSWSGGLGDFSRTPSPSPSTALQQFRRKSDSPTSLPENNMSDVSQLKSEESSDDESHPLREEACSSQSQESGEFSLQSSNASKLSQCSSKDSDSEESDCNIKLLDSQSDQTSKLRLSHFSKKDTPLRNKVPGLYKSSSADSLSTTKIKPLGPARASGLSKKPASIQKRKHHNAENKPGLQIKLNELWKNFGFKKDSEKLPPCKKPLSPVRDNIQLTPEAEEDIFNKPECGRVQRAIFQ
Description: To assess for changes in the thermal stability of EXO1 protein in response to treatment with candidate small molecule inhibitors or DMSO (vehicle control), the thermal shift assay (Applied Biosystems Protein Thermal Shift Dye Kit, Cat. #4461146) was utilized. The protein melt reaction mix consisted of freshly prepared 10× thermal shift dye, purified EXO1 enzyme (1 μg/uL), thermal shift buffer, DMSO or inhibitors, and sterilized Milli-Q water. A drug-free supermix was premade and dispensed in 96-well PCR plates followed by the addition of DMSO or inhibitors with increasing concentration. The reaction plate was heated from 10 to 98 °C at a rate of 0.5° per 10 s cycle, and the fluorescence intensity of individual wells was measured at 490/530 nm using a BioRad CFX96 Touch Real-Time PCR System. The fluorescence measurements of three technical replicates per treatment condition were then averaged to calculate melting temperature shift (ΔT m) as a readout for compound binding affinity.

[1] = test system: MDA-MB-436 (BRCA1−) and MDA-MB-436 (BRCA1+) cells; assay: In vitro cell survival assay (cell counting); assay type: cell-based, human; conditions: 1-50 μM F684, 5 days
Description: For this assay, 10,000 cells were seeded per well in a 24-well plate and incubated in a complete culture medium containing DMSO or the EXO1i of interest at 37 °C with 5% CO2. The medium was refreshed every 3 to 4 days by replacing it with a fresh medium containing DMSO or EXO1i. After 5 days, the cells were trypsinized, and the survival curve was generated by manual cell counting.

COC(=O)c1nc(-c2ccc(OC)cc2)nc(O)c1O [C200] was tested, and the IC50 (UACC-257) was greater than 50 µM, the IC50 (NCI/ADR-RES) was greater than 50 µM and the IC50 (DU145) was 49.4 µM. The IC50 (IGR-OV1) was greater than 50 µM, the IC50 (PC3) was greater than 50 µM and the IC50 (SKOV-3) was greater than 50 µM. The IC50 (OVCAR-5) was greater than 50 µM, the IC50 (U251) was greater than 50 µM and the IC50 (SNB-19) was greater than 50 µM. The IC50 (H23) was greater than 50 µM, the IC50 (SF-295) was greater than 50 µM and the ΔT m (EXO1) was roughly 1 °C.

For Cc1cccc(N2CCN(c3ccc(NS(=O)(=O)c4ccccc4)c(C(=O)O)c3)CC2)c1C [F684], the “cell killing (survival), BRCA1– vs BRCA1+ cells” value [1] was “more effective in killing BRCA1– cells compared to BRCA1+ cells”.
